# Entries after “also recorded” stand apart in the source; their conditions may differ.
# Tests used:
# ARPE-19 cells [1] = test: RPE protection assay: ox-LDL-induced cell death, LDH release; assay type: cell-based, Human; details: for cytotoxicity at 0.43 µM: compound 0.43 μM; for cytotoxicity at 1.4 µM: compound 1.4 μM; for cytotoxicity at 4.3 µM: compound 4.3 μM; for relative RPE protective activity compared with other compounds: ox-LDL 200 μg/ml (FIGS. 5, 7); for protective effect against ox-LDL-induced RPE cell death: high dose 10.4 μM
# Method: FIG. 2 is a graph showing dose-dependent inhibition of ox-LDL-induced RPE death by trolox. […] Data=mean±standard error of the mean (SEM), non-linear regression (GraphPad Prism 6).
# FIGS. 5B and 5C are graphs showing RPE protection by selective anti-oxidants with a hindered phenol group. ARPE-19 cells were treated with ox-LDL (200 μg/ml) with and without different concentrations of various anti-oxidants. Cell death was measured by LDH release assay. Data=mean±SEM, *P<0.05, ***P<0.001 compared to ox-LDL group, ANOVA.
# FIG. 6 is a graph comparing RPE protection activity of hindered phenol-containing 2,2,5,7,8-pentamethyl-6-chromanol (PMC) and selective inhibitors of nucleotide-binding domain, leucine-rich-containing family, pyrin domain-containing-3 (NLRP3) inflammasome activation. ARPE-19 cells were treated with ox-LDL (200 μg/ml) with and without different concentrations of PMC and selective inhibitors of NLRP3 inflammasome activation, MCC950 and isoliquiritigenin. Cell death was measured by LDH release assay. Data=mean±SEM, ***P<0.001 compared to ox-LDL group, ANOVA.
# FIGS. 7B and 7C are graphs that show RPE protection by different experimental analogs of trolox and BHT. ARPE-19 cells were treated with ox-LDL (200 μg/ml) with and without different concentrations of the different analogs of trolox and BHT for 48 hours, cell death was determined by LDH assay. Note that many of the compounds were able to suppress ox-LDL-induced cell death similar to PMC. Data=mean±SEM, *P<0.05, ***P<0.001 compared to ox-LDL group, ANOVA.
# ARPE-19 cells: Human ARPE-19 cells (ATCC, Manassas, Va.) were propagated as described previously (Tseng, W. A., et al., Invest Ophthalmol Vis Sci, 2013. 54(1): p. 110-20). Cells were cultured in DMEMIF12 medium (Lonza, Walkersville, Md.) supplemented with 10% fetal bovine serum (FBS) (Atlanta Biologicals, Lawrenceville, Ga.), 2 mM L-glutamine (Lonza), and 100 U/ml penicillin−100 μg/ml streptomycin (Lonza) (complete media), and passaged at a ratio of 1:2 to 1:4 using trypsin-versene (Lonza). Prior to experiments, cells were maintained in 1% FBS medium for about 3 weeks to obtain ARPE-19 cells with differentiated phenotypes. The transepithelial electrical resistance (TER) of each batch of ARPE-19 cells was measured in cells cultured on laminin-coated 0.4 μm-pore transwell membranes (Corning, Mass.) to ensure it was at least 50 ohm·cm2 (EVOM2 Voltohmmeter, World Precision Instruments, Inc., Sarasota, Fla.) before the cells were used for experiments.
# ARPE-19 cells were treated with ox-LDL (200 μg/ml) with and without different concentrations of the selected analogs for 48 hours, cell death was determined by LDH assay.
# ARPE-19 cells [2] = test: Lysosomal integrity, LysoTracker staining; assay type: cell-based, Human
# Method: FIG. 3 is a graph showing that trolox dose-dependently suppresses ox-LDL-induced lysosomal destabilization in RPE. ARPE-19 cells were treated with ox-LDL with and without different concentrations of trolox for 36 hours. Lysosomal integrity was determined by LysoTracker staining (ThermoFisher Scientific), followed by image analysis to quantify the number of intact lysosomes per cell. […] Data=mean±SEM, *P<0.05, **P<0.01, ***P<0.001 compared to ox-LDL group, analysis of variance (ANOVA).
# (§1) Lysosomal integrity and NF-κB activation: ARPE-19 cells were treated with ox-LDL with and without different concentrations of trolox for 36 hours. Lysosomal integrity was determined by LysoTracker staining (ThermoFisher Scientific), followed by image analysis to quantify the number of intact lysosomes per cell. […] Antibody specific for NF-κB p65 (Cell Signaling, Danvers, Mass.) was used for the immunostaining.
# NF-κB = NF-κB activation, nuclear translocation of NF-κB p65 by immunostaining; assay type: cell-based, Human; details: ox-LDL 200 μg/ml, trolox 10.4 μM, 36 hours (FIG. 4)
# Method: as §1
# ARPE-19 cells [3] = test: ox-LDL-induced ROS formation, ROS-ID Total ROS detection kit; details: ox-LDL 200 μg/ml, 28 hours (FIG. 1)
# [4] = Homo sapiens, ARPE-19, ox-LDL 200 μg/ml, 48 hours, LDH assay, read-out: Protective activity against 200 μg/ml ox-LDL (% cell death, compound concentration)
SMILES,cytotoxicity at 1.4 µM (ARPE-19 cells [1]; [4]) [%],cytotoxicity at 4.3 µM (ARPE-19 cells [1]; [4]) [%],other results
Cc1c(C)c2c(c(C)c1O)CCC(C)(C(=O)N(C)CCc1cnn(C)c1)O2 (centres unmarked) [J],–,–,cytotoxicity at 0.43 µM (ARPE-19 cells [1]; [4]): < 10%
CCN(Cc1noc(COC)n1)C(=O)C1(C)CCc2c(C)c(O)c(C)c(C)c2O1 (centres unmarked) [V],~30,< 10,–
Cc1c(C)c2c(c(C)c1O)CCC(C)(C(=O)O)O2 (centres unmarked) [trolox],–,–,"EC50 (ARPE-19 cells [1]; Homo sapiens, ARPE-19, ox-LDL 200 μg/ml, 48 hours, trolox 0.65-10.4 μM, LDH release (FIG. 2), read-out: estimated EC50, suppression of ox-LDL-induced RPE death): ~5.4 µM; relative RPE protective activity compared with other compounds (ARPE-19 cells [1]): significantly more effective; lysosomal integrity upon ox-LDL treatment (ARPE-19 cells [2]; ARPE-19, 36 hours (FIG. 3)): preserved lysosomal integrity; number of intact lysosomes per cell (ARPE-19 cells [2]; trolox 10.4 μM in the presence of ox-LDL, 36 hours): higher number of intact lysosomes per cell compared to control; NF-κB activation upon ox-LDL treatment (NF-κB): suppressed pro-inflammatory transcription factor NF-κB activation; ox-LDL-induced ROS formation in RPE cells (ARPE-19 cells [3]): suppressed ROS formation"
"CC(C)(O)c1coc(S(=O)(=O)NC(=O)Nc2c3c(cc4c2CCC4)CCC3)c1 [MCC950, reference compound]",–,–,protective effect against ox-LDL-induced RPE cell death (ARPE-19 cells [1]; ox-LDL 200 μg/ml (FIG. 6)): did not have any protective effect
CCc1cc(CN(C)C(=O)C2(C)CCc3c(C)c(O)c(C)c(C)c3O2)on1 (centres unmarked) [P],–,–,"cytotoxicity at 0.14 µM (ARPE-19 cells [1]; Homo sapiens, compound 0.14 μM, ARPE-19, ox-LDL 200 μg/ml, 48 hours, LDH assay, read-out: Protective activity against 200 μg/ml ox-LDL (% cell death, compound concentration)): ~60%; cytotoxicity at 0.43 µM (ARPE-19 cells [1]; [4]): < 10%"
Cc1c(C)c2c(c(C)c1O)CCC(C)(C(=O)N(C)Cc1n[nH]c(=O)[nH]1)O2 (centres unmarked) [W],< 12,–,–
Cc1c(C)c2c(c(C)c1O)CCC(C)(C(=O)N(C)Cc1cc[nH]n1)O2 (centres unmarked) [Z],~22,< 15,–
Cc1c(C)c2c(c(C)c1O)CCC(C)(C(=O)N(C)Cc1ncc[nH]1)O2 (centres unmarked) [L],< 10,–,–
"O=C(/C=C/c1ccc(O)cc1)c1ccc(O)cc1O [isoliquiritigenin, reference compound]",–,–,protective effect against ox-LDL-induced RPE cell death (ARPE-19 cells [1]; ox-LDL 200 μg/ml (FIG. 6)): only protected RPE cells at high dose
Cc1c(C)c2c(c(C)c1O)CCC(C)(C(=O)N1CC(n3cccn3)C1)O2 (centres unmarked) [U],< 10,–,–
CCN(Cc1ccccn1)C(=O)C1(C)CCc2c(C)c(O)c(C)c(C)c2O1 (centres unmarked) [T],< 10,–,–
Cc1coc(C)c1CN(C)C(=O)C1(C)CCc2c(C)c(O)c(C)c(C)c2O1 (centres unmarked) [X],~22,< 16,–
"Cc1c(C)c2c(c(C)c1O)CCC(C)(C)O2 [PMC, 2,2,5,7,8-pentamethyl-6-chromanol, reference compound]",–,–,"protection from ox-LDL-induced RPE cell death (ARPE-19 cells [1]; 0.43 μM, ox-LDL 200 μg/ml (FIG. 6)): > 95%; relative RPE protective activity compared with other compounds (ARPE-19 cells [1]): significantly more effective; also recorded: significantly more potent than trolox and butylated hydroxyl toluene (BHT)"
Cc1noc(C)c1CNC(=O)C1(C)CCc2c(C)c(O)c(C)c(C)c2O1 (centres unmarked) [M],–,–,cytotoxicity at 0.43 µM (ARPE-19 cells [1]; [4]): < 10%
Cc1c(C)c2c(c(C)c1O)CCC(C)(C(=O)N1CCC(c3ncc[nH]3)CC1)O2 (centres unmarked) [O],< 10,–,–
Cc1c(C)c2c(c(C)c1O)CCC(C)(C(=O)NCCCn1cncn1)O2 (centres unmarked) [S],–,< 10,–
Cc1c(C)c2c(c(C)c1O)CCC(C)(C(=O)N(C)CCCn1cccn1)O2 (centres unmarked) [Y],~22,< 21,–
Cc1c(C)c2c(c(C)c1O)CCC(C)(C(=O)N1CCOCC1)O2 (centres unmarked) [R],< 10,–,–
Cc1cc2n(n1)CCN(C(=O)C1(C)CCc3c(C)c(O)c(C)c(C)c3O1)C2 (centres unmarked) [N],< 10,–,–
Cc1c(C)c2c(c(C)c1O)CCC(C)(C(=O)N1CCNC(=O)C1)O2 (centres unmarked) [ZZ],~23,< 13,–
Cc1c(C)c2c(c(C)c1O)CCC(C)(C(=O)N(C)Cc1ncon1)O2 (centres unmarked) [K],< 10,–,–
Cc1c(C)c2c(c(C)c1O)CCC(C)(C(=O)NCCNS(C)(=O)=O)O2 (centres unmarked) [Q],~50,< 10,–

# Source: US11260048B2, “Compounds and compositions for inhibiting retinal pigment epithelium degeneration and methods using the same” (The Schepens Eye Research Institute, Inc., priority 2017, dated 2022)
